{"source": "patent US8598179B2", "about": "“Pyrazole-carboxamide derivatives as P2Y12 antagonists” (Sanofi, priority 2007, dated 2013)", "key": {"human P2Y12 receptor": {"target": "T1, human P2Y12 receptor (Homo sapiens, UniProt Q9H244)", "T1 construct": "expressed in transfected cells; host or cells: CHO cells (membrane preparation)", "T1 sequence (Q9H244 whole entry)": "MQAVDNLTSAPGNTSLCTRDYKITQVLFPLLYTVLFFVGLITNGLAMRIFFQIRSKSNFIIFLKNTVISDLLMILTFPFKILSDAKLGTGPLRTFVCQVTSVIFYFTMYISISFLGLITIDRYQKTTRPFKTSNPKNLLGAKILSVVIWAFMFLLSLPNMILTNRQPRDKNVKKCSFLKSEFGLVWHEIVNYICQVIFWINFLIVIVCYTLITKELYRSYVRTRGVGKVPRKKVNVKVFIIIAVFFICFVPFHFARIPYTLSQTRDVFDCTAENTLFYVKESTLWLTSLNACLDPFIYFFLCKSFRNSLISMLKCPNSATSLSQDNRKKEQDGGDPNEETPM", "experiment": "Human P2Y12 recombinant cell membrane binding assay", "conditions": "competition against 33P 2MeS-ADP; CHO cell membranes with recombinant human P2Y12 receptor", "method": "The ability of the compounds of the formula I to inhibit the P2Y12 receptor can be assessed by determining the concentration of the compound of the formula I that binds to the human P2Y12 Recombinant Cell Membrane Binding Assay with 33P 2MeS-ADP.\nHuman P2Y12 Recombinant Cell Membrane Binding Assay\nThe ability of a test compound to bind to the P2Y12 receptor was evaluated in a recombinant cell membrane binding assay. In this competitive binding assay, the test compound competed against a radiolabeled agonist for binding to the P2Y12 receptor, expressed on the cell membrane. Inhibition of binding of the labeled material was measured and correlated to the amount and potency of the test compound. This binding assay is a modification of the procedure described by Takasaki, J. et. al, Mol. Pharmacol., 2001, Vol. 60, pg. 432.\nAs source of P2Y12, a membrane preparation was prepared from Chinese Hamster Ovary (CHO) cells with recombinant expression of the human P2Y12 receptor according to standard procedures.\nTo a 96-well microtiterplate the following were added: a) 24 μl of assay buffer (10 mM HEPES, 138 mM NaCl, […] KCl, 12 mM NaHCO3, 1 mM EDTA-Na, 0.1% BSA, pH 7.4) b) 1 μL compound in DMSO c) 50 μL P2Y12 CHO membrane (20 μg/ml) and after 15 min at RT d) 25 μL of 1.61 nM 33P 2MeS-ADP (Perkin Elmer NEN custom synthesis, specific activity ˜2100Ci/mmol) made in assay buffer.\nAfter 20 min incubation at RT samples were transferred to 96-well microtiter filterplates (Millipore HTS GF/B), pre-wetted for 20 min with 300 μL of stop buffer (10 mM HEPES, 138 mM NaCl pH 7.4) and then filtered through completely with a Millipore plate vacuum. Next, wells were washed four times with 400 μl/well of stop buffer on a plate vacuum. The plate was disassembled and allowed to air dry overnight with the filter side up over night. The filter plates were snapped into adapter plates and 0.1 mL of Microscint 20 Scintillation Fluid (Perkin Elmer #6013621) was added to each well. The top of the filterplate was sealed with plastic plate covers. The sealed filterplate were incubated 2 hours at RT. A Microbeta Scintillation Counter was used to measure counts. The binding of compound is expressed as a % inhibition of specific binding, defined by subtraction of the background with 1 mM ADP.\nCompounds were diluted as 10 mM DMSO stocks and tested in a four-point, five-fold dilution series run in triplicate beginning at 10 μM, final concentration. Data were analyzed using a four-parameter curve fit with a fixed minimum and maximum experimentally defined as the average positive and negative controls on each plate. The IC50 data of the above described human P2Y12 recombinant cell membrane binding assay for exemplary compounds of the present invention are shown in table 1."}, "[1]": {"system": "human platelet rich plasma (ADP-induced platelet aggregation)", "experiment": "Inhibition of human platelet aggregation, 96-well assay", "format": "cell-based", "conditions": "20 min, aggregation induced by ADP, 96-well plates, AUC of absorbance over 20 minutes", "method": "Inhibition of Human Platelet Aggregation\nAlternatively to a binding assay which measures a compound's ability to bind to the P2Y12 receptor, the effect on cellular function was also determined. This ability of the compound was evaluated in two platelet aggregation assays: in 96-well plates and with the “Born”-method using single cuvettes.\nWhole blood was collected from healthy volunteers using 20 ml syringes containing 2 ml of ACD-A Aqua-Citrat-Dextrose-A, Fresenius). The anticoagulated whole blood was transferred into 15 ml polypropylene conical tubes (10 ml per tube). The tubes were centrifuged for 15 minutes at 150×g at RT without using the centrifuge brake. This procedure leads to a pellet of cellular components and a supernatant of platelet rich plasma (PRP). The PRP layer was collected from each tube and pooled for each donor. To avoid carry over of cellular components following centrifugation, approximately 5 ml of PRP was left in the tube. The platelet concentration was determined using a Coulter Counter.\nThe 15 ml tubes containing the pellet of cellular components were centrifuged again for 10 minutes at 1940×g. This pelleted out most particulate blood constituents remaining, leaving a layer of Platelet Poor Plasma (PPP). The PPP was collected for each donor. The PRP layer, previously set aside, was diluted with PPP to a final concentration of approximately 3×E8 platelets/ml with the PPP.\nThe human platelet aggregation assay is performed in 96-well plates using a microtiter plate reader (SpectraMax Plus 384 with SoftMax Pro software from Molecular Devices). In the plate 15 μl of test compound at 10× final concentration in NaCl is mixed with 120 μl fresh PRP and incubated for 5 minutes. Following that incubation period, 15 μl of 40 μM ADP is added to the reaction mix. This addition of ADP is sufficient to induce aggregation in the absence of an inhibitor. The plates are then transferred to the microplate reader and aggregation is measured over 20 minutes. The instrument settings include: Absorbance at 650 nm, run time 20 minutes with readings in 1-minute intervals and 50 seconds shaking between readings all performed at 37° C. Results of the assay are expressed as % inhibition, and are calculated using area under curve (AUC) of the absorbance over 20 minutes.\nThe IC50 data of the above described platelet aggregation 96-well assay using human platelet rich plasma for exemplary compounds of the present invention are shown in table 2."}}, "note": "pIC50: −log10 of the molar value.", "data": [{"smiles": "CCOC(=O)N1CCN(C(=O)[C@H](CCC(=O)O)NC(=O)c2cc(OC3(C(=O)O)CCC3)n(-c3ccccc3)n2)CC1", "note": "[Example 7, 4-((S)-4-Carboxy-2-{[5-(1-carboxy-cyclobutoxy)-1-phenyl-1H-pyrazole-3-carbonyl]-amino}-butyryl)-piperazine-1-carboxylic acid ethyl ester]", "values": [{"measurement": "pIC50", "setting": "human P2Y12 receptor", "result": 6.22}]}, {"smiles": "CCOC(=O)N1CCN(C(=O)[C@H](CC(C(=O)O)C(=O)O)NC(=O)c2cc(OC3(C(=O)OCC)CCC3)n(-c3ccccc3)n2)CC1", "note": "[Example 61, 2-[(S)-2-{[5-(1-Ethoxycarbonyl-cyclobutoxy)-1-phenyl-1H-pyrazole-3-carbonyl]-amino}-3-(4-ethoxycarbonyl-piperazin-1-yl)-3-oxo-propyl]-malonic acid]", "values": [{"measurement": "pIC50", "setting": "human P2Y12 receptor", "result": 6.42}]}, {"smiles": "CCOC(=O)N1CCN(C(=O)[C@H](CCC(=O)O)NC(=O)c2cc(OCC(=O)C3CC3)n(-c3ccccc3)n2)CC1", "note": "[Example 96, 4-((S)-4-Carboxy-2-{[5-(2-cyclopropyl-2-oxo-ethoxy)-1-phenyl-1H-pyrazole-3-carbonyl]-amino}-butyryl)-piperazine-1-carboxylic acid ethyl ester]", "values": [{"measurement": "pIC50", "setting": "[1]", "result": 5.59}]}, {"smiles": "COc1cc(OC)cc(N2CCN(C(=O)[C@H](CCC(=O)O)NC(=O)c3cc(OCC(=O)C(C)(C)C)n(-c4ccccc4)n3)CC2)c1", "note": "[Example 105, (S)-5-[4-(3,5-Dimethoxy-phenyl)-piperazin-1-yl]-4-{[5-(3,3-dimethyl-2-oxo-butoxy)-1-phenyl-1H-pyrazole-3-carbonyl]-amino}-5-oxo-pentanoic acid]", "values": [{"measurement": "pIC50", "setting": "human P2Y12 receptor", "result": 5.85}]}, {"smiles": "Cc1cc(COc2cc(C(=O)N[C@@H](CCC(=O)O)C(=O)N3CCN(c4cccc(C(F)(F)F)c4)CC3)nn2-c2ccccc2)no1", "note": "[Example 120, (S)-4-{[5-(5-Methyl-isoxazol-3-ylmethoxy)-1-phenyl-1H-pyrazole-3-carbonyl]-amino}-5-oxo-5-[4-(3-trifluoromethyl-phenyl)-piperazin-1-yl]-pentanoic acid]", "values": [{"measurement": "pIC50", "setting": "human P2Y12 receptor", "result": 5.46}]}, {"smiles": "CC(C)(C)C(=O)COc1cc(C(=O)N[C@@H](CCC(=O)O)C(=O)N2CCC(C(=O)c3cccc(Cl)c3)CC2)nn1-c1ccccc1", "note": "[Example 127, (S)-5-[4-(3-Chloro-benzoyl)-piperidin-1-yl]-4-{[5-(3,3-dimethyl-2-oxo-butoxy)-1-phenyl-1H-pyrazole-3-carbonyl]-amino}-5-oxo-pentanoic acid]", "values": [{"measurement": "pIC50", "setting": "human P2Y12 receptor", "result": 5.55}]}, {"smiles": "CCOC(=O)N1CCN(C(=O)[C@H](CNC(=O)C(=O)O)NC(=O)c2cc(OCC(=O)C(C)(C)C)n(-c3ccccc3)n2)CC1", "note": "[Example 134, 4-[(S)-2-{[5-(3,3-Dimethyl-2-oxo-butoxy)-1-phenyl-1H-pyrazole-3-carbonyl]-amino}-3-(oxalyl-amino)-propionyl]-piperazine-1-carboxylic acid ethyl ester]", "values": [{"measurement": "pIC50", "setting": "human P2Y12 receptor", "result": 6.30}]}, {"smiles": "CCOC(=O)N1CCN(C(=O)[C@H](CNc2c(O)c(=O)c2=O)NC(=O)c2cc(OCC(=O)C(C)(C)C)n(-c3ccccc3)n2)CC1", "note": "[Example 136, 4-[(S)-2-{[5-(3,3-Dimethyl-2-oxo-butoxy)-1-phenyl-1H-pyrazole-3-carbonyl]-amino}-3-(2-hydroxy-3,4-dioxo-cyclobut-1-enylamino)-propionyl]-piperazine-1-carboxylic acid ethyl ester]", "values": [{"measurement": "pIC50", "setting": "human P2Y12 receptor", "result": 5.46}]}, {"smiles": "CCOC(=O)N1CCN(C(=O)[C@H](CCC(=O)O)NC(=O)c2cc(OCC(=O)N[C@@H](C)C(=O)O)n(-c3ccccc3)n2)CC1", "note": "[Example 138, 4-[(S)-4-Carboxy-2-({5-[((S)-1-carboxy-ethylcarbamoyl)-methoxy]-1-phenyl-1H-pyrazole-3-carbonyl}-amino)-butyryl]-piperazine-1-carboxylic acid ethyl ester]", "values": [{"measurement": "pIC50", "setting": "[1]", "result": 5.83}]}, {"smiles": "CCOC(=O)N1CCN(C(=O)[C@H](CCC(=O)O)NC(=O)c2cc(OCC(=O)N[C@H](C)C(=O)O)n(-c3ccccc3)n2)CC1", "note": "[Example 139, 4-[(S)-4-Carboxy-2-({5-[((R)-1-carboxy-ethylcarbamoyl)-methoxy]-1-phenyl-1H-pyrazole-3-carbonyl}-amino)-butyryl]-piperazine-1-carboxylic acid ethyl ester]", "values": [{"measurement": "pIC50", "setting": "[1]", "result": 5.73}]}, {"smiles": "CCCCOC(=O)N1CCN(C(=O)[C@H](CCC(=O)O)NC(=O)c2cc(OCC(=O)C(C)(C)C)n(-c3ccccc3)n2)CC1", "note": "[Example 147, 4-((S)-4-Carboxy-2-{[5-(3,3-dimethyl-2-oxo-butoxy)-1-phenyl-1H-pyrazole-3-carbonyl]-amino}-butyryl)-piperazine-1-carboxylic acid butyl ester]", "values": [{"measurement": "pIC50", "setting": "human P2Y12 receptor", "result": 7.02}]}, {"smiles": "CC(C)(C)C(=O)COc1cc(C(=O)N[C@@H](CCC(=O)O)C(=O)N2CCN(C(=O)OC3CCC3)CC2)nn1-c1ccccc1", "note": "[Example 158, 4-((S)-4-Carboxy-2-{[5-(3,3-dimethyl-2-oxo-butoxy)-1-phenyl-1H-pyrazole-3-carbonyl]-amino}-butyryl)-piperazine-1-carboxylic acid cyclobutyl ester]", "values": [{"measurement": "pIC50", "setting": "human P2Y12 receptor", "result": 6.58}]}, {"smiles": "CCOC(=O)N1CCN(C(=O)[C@H](CC(=O)O)NC(=O)c2cc(OCC(=O)C(C)(C)C)n(-c3ccccc3)n2)CC1", "note": "[Example 163, 4-((S)-3-Carboxy-2-{[5-(3,3-dimethyl-2-oxo-butoxy)-1-phenyl-1H-pyrazole-3-carbonyl]-amino}-propionyl)-piperazine-1-carboxylic acid ethyl ester]", "values": [{"measurement": "pIC50", "setting": "human P2Y12 receptor", "result": 6.70}]}, {"smiles": "CCOC(=O)N1CCN(C(=O)[C@H](CC(=O)NS(C)(=O)=O)NC(=O)c2cc(OCC(=O)C(C)(C)C)n(-c3ccccc3)n2)CC1", "note": "[Example 164, 4-((S)-2-{[5-(3,3-Dimethyl-2-oxo-butoxy)-1-phenyl-1H-pyrazole-3-carbonyl]-amino}-4-methanesulfonylamino-4-oxo-butyryl)-piperazine-1-carboxylic acid ethyl ester]", "values": [{"measurement": "pIC50", "setting": "human P2Y12 receptor", "result": 5.80}]}, {"smiles": "CCOC(=O)N1CCN(C(=O)[C@H](CCC(=O)O)NC(=O)c2cc(OCC(=O)NC3(C(=O)NC4CCC4)CCC3)n(-c3ccccc3)n2)CC1", "note": "[Example 167, 4-{(S)-4-Carboxy-2-[(5-{[1-(cyclobutyl-carbamoyl)-cyclobutylcarbamoyl]-methoxy}-1-phenyl-1H-pyrazole-3-carbonyl)-amino]-butyryl}-piperazine-1-carboxylic acid ethyl ester]", "values": [{"measurement": "pIC50", "setting": "[1]", "result": 5.66}]}]}
